Our source for the EC50 values is US8871756B2 (Hoffmann-La Roche Inc., priority 2011, dated 2014).

As a reminder, the EC50 is the midpoint of the concentration-response curve.

This assay has as its system RSV Long strain. Put plainly: Viral cytopathic effect (CPE) assay, anti-RSV activity. To be noted: human respiratory syncytial virus, 144 h, RSV Long strain (ATCC); cell viability after 6 days, Cell Counting kit-8. Type of assay: cell-based, Respiratory Syncytial Virus. In a few lines: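 EC50 was derived from CCK-8 viability at 450/630 nm measured 6 days post-infection. Infection used enough RSV Long strain for approximately 80–90% cytopathic effect, in the presence of half-log serially diluted compound. Cells were plated the day before at 6×10^3 per well in DMEM/10% FBS.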
(Cytopathic effects are the visible damage that an infection or toxin causes in cultured cells.)
Consider `Cc1ccc2nc(N3CCS(=O)(=O)c4ccccc4C3)cc(NC(=O)C(C)(C)N)c2c1` [Example 40-2, N-[2-(1,1-Dioxido-2,3-dihydro-1,4-benzothiazepin-4(5H)-yl)-6-methylquinolin-4-yl]-2-methylalaninamide], for which it took 4.66 µM to reach a half-maximal effect (EC50).

As to `Cc1ccc2nc(N3CCS(=O)(=O)c4ccccc4C3)cc(N[C@@H](C)CO)c2c1` [Example 8-2, (2S)-2-{[2-(1,1-Dioxido-2,3-dihydro-1,4-benzothiazepin-4(5H)-yl)-6-methylquinolin-4-yl]amino}propan-1-ol], the EC50 came out at 0.817 µM. This EC50 lies about 5.7-fold lower than the previous one.

`Cc1ccc2nc(N3CCS(=O)(=O)c4cc(Oc5ccccc5)ccc4C3)cc(NCC3(N)COC3)c2c1` [Example 35, N-[(3-Aminooxetan-3-yl)methyl]-2-(1,1-dioxido-8-phenoxy-2,3-dihydro-1,4-benzothiazepin-4(5H)-yl)-6-methylquinolin-4-amine] registered an EC50 of 2.79 µM.

The molecule `CC(=O)NCCNc1cc(N2CCS(=O)(=O)c3ccccc3C2)nc2ccc(C)cc12` [Example 63-1, N-(2-{[2-(1,1-Dioxido-2,3-dihydro-1,4-benzothiazepin-4(5H)-yl)-6-methylquinolin-4-yl]amino}ethyl)acetamide] displayed an EC50 of 3.13 µM.

The molecule `NC1(CNc2cc(N3CCS(=O)(=O)c4ccccc4C3)nc3ccc(CO)cc23)COC1` [Example 3-23, [4-{[(3-Aminooxetan-3-yl)methyl]amino}-2-(1,1-dioxido-2,3-dihydro-1,4-benzothiazepin-4(5H)-yl)quinolin-6-yl]methanol] gave an EC50 of 0.002 µM.

As for `Cc1ccc2nc(N3CCS(=O)(=O)c4c(F)cccc4C3)cc(NCC3(N)COC3)c2c1` [Example 1-4, N-[(3-Aminooxetan-3-yl)methyl]-2-(9-fluoro-1,1-dioxido-2,3-dihydro-1,4-benzothiazepin-4(5H)-yl)-6-methylquinolin-4-amine], the EC50 was determined as 0.004 µM.

In turn, `NCCNc1cc(N2CCS(=O)(=O)c3ccccc3C2)nc2ccc(Cl)cc12` [Example 3-46, N-[6-Chloro-2-(1,1-dioxido-2,3-dihydro-1,4-benzothiazepin-4(5H)-yl)quinolin-4-yl]ethane-1,2-diamine] returned an EC50 of 0.053 µM.

As to `Cc1ccc2nc(N3CCS(=O)(=O)c4ccccc4C3)nc(NCCO)c2c1` [Example 57-7, 2-{[2-(1,1-Dioxido-2,3-dihydro-1,4-benzothiazepin-4(5H)-yl)-6-methylquinazolin-4-yl]amino}ethanol], it took 0.081 µM to reach a half-maximal effect (EC50). Compared with the last molecule, the EC50 is about 1.5-fold higher.

The molecule `Cc1ccc2nc(N3CCC(F)(F)c4ccccc4C3)cc(N3CCNCC3)c2c1` [Example 111-1, 5,5-Difluoro-2-[6-methyl-4-(piperazin-1-yl)quinolin-2-yl]-2,3,4,5-tetrahydro-1H-2-benzazepine] had an EC50 of 2.01 µM. Against the preceding molecule, the EC50 is about 25-fold higher.

The molecule `Cc1ccc2nc(N3CCS(=O)(=O)c4ccccc4C3)cc(NCCNC3COC3)c2c1` [Example 45-3, N-[2-(1,1-Dioxido-2,3-dihydro-1,4-benzothiazepin-4(5H)-yl)-6-methylquinolin-4-yl]-N′-(oxetan-3-yl)ethane-1,2-diamine] registered an EC50 of 0.031 µM.

As to `Cc1ccc2nc(N3CCS(=O)(=O)c4ccccc4C3)cc(NC(=O)c3ccccn3)c2c1` [Example 48, N-[2-(1,1-Dioxido-2,3-dihydro-1,4-benzothiazepin-4(5H)-yl)-6-methylquinolin-4-yl]pyridine-2-carboxamide], the EC50 is 0.009 µM. This EC50 is about 3.4-fold lower than that of the molecule before.

Turning to `Cc1ccc2nc(N3CCS(=O)(=O)c4ccccc4C3)cc(NCC(F)(F)C(F)(F)CN)c2c1` [Example 3-43, N-[2-(1,1-Dioxido-2,3-dihydro-1,4-benzothiazepin-4(5H)-yl)-6-methylquinolin-4-yl]-2,2,3,3-tetrafluorobutane-1,4-diamine], the EC50 was determined as 2.39 µM.

For the molecule `Cc1ccc2nc(N3CCS(=O)(=O)c4ccccc4C3)cc(N3C[C@@H](N)[C@H](O)C3)c2c1` (relative stereo) [Example 19-3, trans-4-Amino-1-[2-(1,1-dioxido-2,3-dihydro-1,4-benzothiazepin-4(5H)-yl)-6-methylquinolin-4-yl]pyrrolidin-3-ol], the EC50 was 0.006 µM.

Turning to `Cc1ccc2nc(N3CCC(F)(F)c4ccccc4C3)cc(NCCCO)c2c1` [Example 110-6, 3-{[2-(5,5-Difluoro-1,3,4,5-tetrahydro-2H-2-benzazepin-2-yl)-6-methylquinolin-4-yl]amino}propan-1-ol], a half-maximal effect (EC50) was put at 4.28 µM.

For the molecule `NC1(CNc2nc(N3CCSc4ccccc4C3)nc3ccccc23)COC1` [Example 57-1, N-[(3-Aminooxetan-3-yl)methyl]-2-(2,3-dihydro-1,4-benzothiazepin-4(5H)-yl)quinazolin-4-amine], the response was half-maximal at 0.067 µM (EC50).

In turn, `Cc1ccc2nc(N3CCS(=O)(=O)c4ccccc4C3)cc(NCCCNC3COC3)c2c1` [Example 45-1, N-[2-(1,1-Dioxido-2,3-dihydro-1,4-benzothiazepin-4(5H)-yl)-6-methylquinolin-4-yl]-N′-(oxetan-3-yl)propane-1,3-diamine] had an EC50 of 0.021 µM.

As to `Cc1ccc2c(c1)S(=O)(=O)CCN(c1cc(NCC3(N)COC3)c3cc(C)ccc3n1)C2` [Example 2-5, N-[(3-Aminooxetan-3-yl)methyl]-6-methyl-2-(8-methyl-1,1-dioxido-2,3-dihydro-1,4-benzothiazepin-4(5H)-yl)quinolin-4-amine], a half-maximal response (EC50) required 0.006 µM. This EC50 lies about 3.5-fold lower than the previous one.

`Cc1ccc2nc(N3CCS(=O)(=O)c4ccccc4C3)cc(NC(C)(C)CN)c2c1` [Example 9-17, N^˜2^˜-[2-(1,1-Dioxido-2,3-dihydro-1,4-benzothiazepin-4(5H)-yl)-6-methylquinolin-4-yl]-2-methylpropane-1,2-diamine] displayed an EC50 of 0.025 µM. This EC50 lies about 4.2-fold higher than the previous one.

For `Cc1ccc2nc(N3CCC(F)(F)c4ccccc4C3)cc(NC3CCNC3)c2c1` (stereo not drawn) [Example 110-10], the EC50 worked out at 0.099 µM. Compared with the last molecule, the EC50 is about 4-fold higher.

Molecule `Cc1ccc2nc(N3CC[S+]([O-])c4ccccc4C3)nc(NCCN)c2c1` (stereo not drawn) [Example 89, N-[6-Methyl-2-(1-oxido-2,3-dihydro-1,4-benzothiazepin-4(5H)-yl)quinazolin-4-yl]ethane-1,2-diamine] gave an EC50 of 0.007 µM.

Molecule `Cc1ccc2nc(N3CCS(=O)(=O)c4ccccc4C3)cc(N3C[C@@H](N)[C@H](F)C3)c2c1` (relative stereo) [Example 78-2, trans-1-[2-(1,1-Dioxido-2,3-dihydro-1,4-benzothiazepin-4(5H)-yl)-6-methylquinolin-4-yl]-4-fluoropyrrolidin-3-amine] came in with an EC50 of 0.25 µM.

`CC(C)(N)CNc1cc(N2CCS(=O)(=O)c3ccccc3C2)nc2ccc(Cl)cc12` [Example 3-26, N^˜1^˜-[6-Chloro-2-(1,1-dioxido-2,3-dihydro-1,4-benzothiazepin-4(5H)-yl)quinolin-4-yl]-2-methylpropane-1,2-diamine] had an EC50 of 0.876 µM. This EC50 is about 3.5-fold higher than that of the molecule before.

The molecule `NCCNc1cc(N2CCCc3ccccc3C2)nc2ccc(Br)cc12` [Example 118-10, N-[6-Bromo-2-(1,3,4,5-tetrahydro-2H-2-benzazepin-2-yl)quinolin-4-yl]ethane-1,2-diamine] registered an EC50 of 0.289 µM.

Regarding `Cc1ccc2nc(N3CCS(=O)(=O)c4ccccc4C3)cc(OC3CCNC3)c2c1` (stereo not drawn) [Example 98-1, 4-[6-Methyl-4-(pyrrolidin-3-yloxy)quinolin-2-yl]-2,3,4,5-tetrahydro-1,4-benzothiazepine 1,1-dioxide], it took 0.778 µM to reach a half-maximal effect (EC50).

`CC(O)c1ccc2nc(N3CCS(=O)(=O)c4ccccc4C3)cc(NCCCN)c2c1` (stereo not drawn) [Example 82, 1-{4-[(3-Aminopropyl)amino]-2-(1,1-dioxido-2,3-dihydro-1,4-benzothiazepin-4(5H)-yl)quinolin-6-yl}ethanol] showed an EC50 of 0.014 µM.

On to `Cc1ccc2nc(N3CCS(=O)(=O)c4ccccc4C3)nc(NC3CNC3)c2c1` [Example 93-2, N-(Azetidin-3-yl)-6-methyl-2-(1,1-dioxido-2,3-dihydro-1,4-benzothiazepin-4(5H)-yl)quinazolin-4-amine], for which the midpoint of the response, the EC50, lay at 0.009 µM.

Regarding `Cc1ccc2nc(N3CCS(=O)(=O)c4ccccc4C3)cc(NCCCCCCCN)c2c1` [Example 3-30, N-[2-(1,1-Dioxido-2,3-dihydro-1,4-benzothiazepin-4(5H)-yl)-6-methylquinolin-4-yl]heptane-1,7-diamine], a half-maximal response (EC50) required 7.81 µM.

For `CNCCNc1cc(N2CCS(=O)(=O)c3ccccc3C2)nc2ccc(C)cc12` [Example 3-31, N-[2-(1,1-Dioxido-2,3-dihydro-1,4-benzothiazepin-4(5H)-yl)-6-methylquinolin-4-yl]-N′-methylethane-1,2-diamine], the response was half-maximal at 0.014 µM (EC50).

For `O=S1(=O)CCN(c2cc(NCCO)c3cnccc3n2)Cc2ccccc21` [Example 12-2, 2-{[2-(1,1-Dioxido-2,3-dihydro-1,4-benzothiazepin-4(5H)-yl)-1,6-naphthyridin-4-yl]amino}ethanol], a half-maximal response (EC50) required 0.315 µM. This EC50 is about 22-fold higher than that of the molecule before.

`Cc1ccc2nc(N3CCS(=O)(=O)c4ccccc4C3)cc(NC(CO)CO)c2c1` [Example 11-1, 2-{[2-(1,1-Dioxido-2,3-dihydro-1,4-benzothiazepin-4(5H)-yl)-6-methylquinolin-4-yl]amino}propane-1,3-diol] showed an EC50 of 0.069 µM. This EC50 lies about 4.6-fold lower than the previous one.

As to `Cc1ccc2nc(N3CCS(=O)(=O)c4ccccc4C3)cc(N(C)C)c2c1` [Example 16-2, 2-(1,1-Dioxido-2,3-dihydro-1,4-benzothiazepin-4(5H)-yl)-N,N,6-trimethylquinolin-4-amine], the EC50 was found to be 9.64 µM.

For the molecule `Cc1cc2c(NCCN)cc(N3CCS(=O)(=O)c4ccccc4C3)nc2cc1F` [Example 9-24, N-[2-(1,1-Dioxido-2,3-dihydro-1,4-benzothiazepin-4(5H)-yl)-7-fluoro-6-methylquinolin-4-yl]ethane-1,2-diamine], it took 0.024 µM to reach a half-maximal effect (EC50).

As to `COC(C)(C)C(=O)Nc1cc(N2CCS(=O)(=O)c3ccccc3C2)nc2ccc(C)cc12` [Example 41, N-[2-(1,1-Dioxido-2,3-dihydro-1,4-benzothiazepin-4(5H)-yl)-6-methylquinolin-4-yl]-2-methoxy-2-methylpropanamide], the EC50 is 2.63 µM.
